# Measured values published in patent US8039510B2, “Methods of making and using theaflavin, theaflavin-3-gallate, theaflavin-3′-gallate and theaflavin 3,3′-digallate and mixtures thereof” (Nashai Biotech, LLC, priority 2001, dated 2011).
# Tested on: Male Sprague-Dawley rats
# Experiment: Lipid profile of rats fed cholesterol diet plus theaflavins or catechin for eight weeks
# Assay type: in vivo, rat
# Conditions: for HDL / LDL / TC / TG: rat plasma, eight weeks; for reducing plasma levels of TC, LDL-C and TG, compared with catechin: rats
# Method: Male Sprague-Dawley rats weighing 100 g to 130 g were divided into nine groups of ten rats. The animals were individually housed in stainless-steel cages with screen bottoms in a room maintained at between 22° C. and 24° C. They were fed stationary feedstuff and water as follows as described in Table 1. In addition the rats in Group TF1-1, TF1-2 or TF1-3 were fed pure theaflavin in a dosage of 1 mg/kg/day, 2 mg/kg/day and 4 mg/kg/day, respectively. The animals in group TF2A-2, TF2B-2 or RF3-2 were fed pure theaflavin-3-gallate, theaflavin-3′-gallate and theaflavin-3,3′-digallate, respectively in a dosage of 2 mg/kg/day. The animals in group CA-1 and CA-2 were fed catechins in a dosage of 1 mg/kg/day or 2 mg/kg/day, respectively.
# The Sprague Dawley rats were fed the above diets for eight weeks before sampling. The rats were not fed for 12 hours prior to sampling. The rats were given either theaflavin, theaflavin-3-gallate, theaflavin-3′-gallate, theaflavin-3,3′-digallate or catechin one hour in advance of collecting the blood sample.
# [1] = group TF1-3: 4 mg/kg/day per text (Table 1 prints 3)
Compound,HDL (2 mg/kg/day),LDL (2 mg/kg/day),TC (2 mg/kg/day),TG (2 mg/kg/day),"reducing plasma levels of TC, LDL-C and TG, compared with catechin",HDL (1 mg/kg/day),LDL (1 mg/kg/day),TC (1 mg/kg/day),"TG (1 mg/kg/day, mean ± spread)",HDL [1],LDL [1],TC [1],TG [1]
O=C(O[C@@H]1Cc2c(O)cc(O)cc2O[C@@H]1c1cc(=O)c(O)c2c(O)c(O)cc([C@H]3Oc4cc(O)cc(O)c4C[C@H]3O)c2c1)c1cc(O)c(O)c(O)c1 [theaflavin-3-gallate],49.2 ± 1.9^3,32.2 ± 3.7^1,97.3 ± 8.4^1,95.7 ± 10.5^1,more effective,–,–,–,–,–,–,–,–
O=c1c(O)cc([C@H]2Oc3cc(O)cc(O)c3C[C@H]2O)cc2c([C@H]3Oc4cc(O)cc(O)c4C[C@H]3O)cc(O)c(O)c12 [theaflavin],49.2 ± 2.1^3,34.6 ± 3.7^1,101.3 ± 7.9^1,97.4 ± 11.6^1,more effective,48.8 ± 1.7^3,45.6 ± 3.1^1,116.3 ± 8.2^1,108.1 ± 13.8^2,49.4 ± 1.9^3,25.3 ± 2.2^1,90.8 ± 7.1^1,87.7 ± 12.2^1
"theaflavin-3,3′-digallate",49.3 ± 1.9^3,31.2 ± 4.1^1,95.5 ± 7.4^1,95.36 ± 9.2^1,more effective,–,–,–,–,–,–,–,–
theaflavin-3′-gallate,49.3 ± 2.7^3,32.4 ± 3.3^1,97.8 ± 8.5^1,96.2 ± 10.2^1,more effective,–,–,–,–,–,–,–,–
